Measured values published in ChEMBL document CHEMBL1133375, “Exploring the chiral space within the active site of alpha-thrombin with a constrained mimic of D-Phe-Pro-Arg--design, synthesis, inhibitory activity, and X-ray structure of an enzyme-inhibitor complex” (Bioorg Med Chem Lett, 2000).
pIC50, pKi: −log10 of the molar value.

What was measured:
Prothrombin [1] = target: T1, Prothrombin (Homo sapiens, UniProt P00734); test: Concentration required for 50 percent inhibition of Prothrombin
Prothrombin [2] = target: T1, Prothrombin; test: The compound was evaluated for binding affinity against Prothrombin

pIC50 (Prothrombin [1])	pKi (Prothrombin [2])	SMILES
4.90		NCc1ccc(CNC(=O)[C@@H]2CC[C@H]3[C@@H](OCc4ccccc4)CCC(=O)N23)cc1
6.60	6.90	C[C@]1(O)CC[C@@H]2CC[C@@H](C(=O)NCc3ccc(C(=N)N)cc3)N2C1=O
6.60	6.90	CO[C@H]1C[C@@](O)(Cc2ccccc2)C(=O)N2[C@H](C(=O)NCc3ccc(C(=N)N)cc3)CC[C@@H]12
4.90		O=C(NCC1CCNCC1)[C@@H]1CC[C@H]2[C@@H](OCc3ccccc3)CCC(=O)N12
4.90		O=C(NCC1CCNCC1)[C@@H]1CC[C@H]2[C@@H](OCc3ccccc3)C[C@H](O)C(=O)N12
4.90		NCc1ccc(CNC(=O)[C@@H]2CC[C@H]3[C@@H](OCc4ccccc4)C[C@H](O)C(=O)N23)cc1

SMILES	pIC50 (Prothrombin [1])	pKi (Prothrombin [2])
N=C(N)c1ccc(CNC(=O)[C@@H]2CC[C@H]3CC[C@@](O)(Cc4ccccc4)C(=O)N32)cc1	7.70	8.05
